Experiments:
[1] = molecular target: FLT3 kinase (Homo sapiens (Human), UniProt P36888); assay: Competition binding assay (Kd), FLT3; settings: competition binding assay
[2] = molecular target: KIT kinase (Homo sapiens (Human), UniProt P10721); assay: Competition binding assay (Kd), KIT; settings: competition binding assay
How it was run: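 Kd derived from eleven-point threefold serial dilutions of compound competing with bead-bound ligand for kinase; bound kinase eluted and measured by quantitative PCR. Kinase supplied either as a T7 phage fusion or expressed in HEK-293 cells with a DNA tag; DMSO served as control.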

[3] = molecular target: FLT3-ITD (Homo sapiens (Human), UniProt P36888, INS600HVDFREYEYD); assay: pFLT3 MSD assay, Ba/F3 FLT3-ITD; type: cell-based; settings: Ba/F3 FLT3-ITD cells, 2 hours, read-out: BaF3-FLT3-ITD pFlt3 IC50
FLT3-ITD, sequence (P36888 other isoform, or with tags, fused parts or gaps limits assumed, stated change not applied): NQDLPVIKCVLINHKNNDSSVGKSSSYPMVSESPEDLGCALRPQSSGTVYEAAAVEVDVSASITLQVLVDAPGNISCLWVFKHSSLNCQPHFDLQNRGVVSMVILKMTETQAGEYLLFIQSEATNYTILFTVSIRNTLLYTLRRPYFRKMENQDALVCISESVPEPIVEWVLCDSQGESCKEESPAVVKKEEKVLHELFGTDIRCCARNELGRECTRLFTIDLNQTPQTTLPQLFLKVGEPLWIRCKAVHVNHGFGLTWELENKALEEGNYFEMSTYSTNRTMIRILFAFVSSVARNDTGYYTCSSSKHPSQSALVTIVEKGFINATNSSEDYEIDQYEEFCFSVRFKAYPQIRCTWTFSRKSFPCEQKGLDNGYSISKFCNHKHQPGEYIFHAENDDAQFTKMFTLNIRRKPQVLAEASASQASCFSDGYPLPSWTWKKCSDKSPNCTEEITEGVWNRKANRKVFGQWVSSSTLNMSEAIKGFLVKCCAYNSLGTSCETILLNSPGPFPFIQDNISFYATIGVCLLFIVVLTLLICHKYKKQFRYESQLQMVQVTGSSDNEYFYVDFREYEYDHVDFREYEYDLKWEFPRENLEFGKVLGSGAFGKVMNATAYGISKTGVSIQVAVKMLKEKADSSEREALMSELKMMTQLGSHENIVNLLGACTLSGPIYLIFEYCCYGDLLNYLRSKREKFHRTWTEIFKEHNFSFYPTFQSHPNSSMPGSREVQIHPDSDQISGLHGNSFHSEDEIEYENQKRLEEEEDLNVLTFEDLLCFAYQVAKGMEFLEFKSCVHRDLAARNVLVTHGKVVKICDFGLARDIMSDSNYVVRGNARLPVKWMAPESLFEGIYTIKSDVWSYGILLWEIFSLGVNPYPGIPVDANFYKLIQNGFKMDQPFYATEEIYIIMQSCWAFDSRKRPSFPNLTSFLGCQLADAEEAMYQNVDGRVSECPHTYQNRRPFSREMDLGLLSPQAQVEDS
Method: In certain other embodiments, the compounds disclosed herein are tested in a FLT3 phosphorylation assay to determine their cellular potency against one or both of FLT3-ITD and FLT3 tyrosine kinase domain mutants. In certain embodiments, the FLT3 phosphorylation assay assesses the potency of compounds as FLT3 inhibitors by measuring the reduction in formation of phosphorylated FLT3 in the cells.
Gene constructs containing the human FLT3 sequences FLT3-ITD, FLT3-ITD-F691L, FLT3-ITD-D835V and FLT3-D835V were synthesized by reverse translation of the human protein sequences, with codons optimized for mammalian expression. Sequence of the internal tandem duplication (ITD) was based on the MV4-11 ITD sequence. […] Viruses were transduced into the IL-3-dependent, murine macrophage cell line, Ba/F3, and selected for puromycin resistance and IL-3 independence. All cell lines were cloned by limiting dilution and clones were used for all subsequent cell assays.
Briefly, cell lines were serum starved overnight in media containing 0.5% FBS. Cells were plated at 200,000 cells/well in 96-well round bottom plates in low serum, and 3-fold serial dilutions of test compounds were added for 2 hours at 37° C. […] After an overnight incubation at 4° C. shaking at 450 rpm, plates were washed with MSD wash buffer, and captured FLT3 was detected with biotinylated-anti-phosphotyrosine antibody 4G10 (Millipore) and SulfoTAG-streptavidin (MSD) for 1 hour at room temperature, and read on an MSD SECTOR Imager 6000. Percent remaining phospho-FLT3 in compound-treated cells was normalized to DMSO-treated cells, and IC50s were determined using Igor Pro software. All compounds are assayed in duplicate cell and MSD plates.

KIT kinase, sequence (P10721 26-976): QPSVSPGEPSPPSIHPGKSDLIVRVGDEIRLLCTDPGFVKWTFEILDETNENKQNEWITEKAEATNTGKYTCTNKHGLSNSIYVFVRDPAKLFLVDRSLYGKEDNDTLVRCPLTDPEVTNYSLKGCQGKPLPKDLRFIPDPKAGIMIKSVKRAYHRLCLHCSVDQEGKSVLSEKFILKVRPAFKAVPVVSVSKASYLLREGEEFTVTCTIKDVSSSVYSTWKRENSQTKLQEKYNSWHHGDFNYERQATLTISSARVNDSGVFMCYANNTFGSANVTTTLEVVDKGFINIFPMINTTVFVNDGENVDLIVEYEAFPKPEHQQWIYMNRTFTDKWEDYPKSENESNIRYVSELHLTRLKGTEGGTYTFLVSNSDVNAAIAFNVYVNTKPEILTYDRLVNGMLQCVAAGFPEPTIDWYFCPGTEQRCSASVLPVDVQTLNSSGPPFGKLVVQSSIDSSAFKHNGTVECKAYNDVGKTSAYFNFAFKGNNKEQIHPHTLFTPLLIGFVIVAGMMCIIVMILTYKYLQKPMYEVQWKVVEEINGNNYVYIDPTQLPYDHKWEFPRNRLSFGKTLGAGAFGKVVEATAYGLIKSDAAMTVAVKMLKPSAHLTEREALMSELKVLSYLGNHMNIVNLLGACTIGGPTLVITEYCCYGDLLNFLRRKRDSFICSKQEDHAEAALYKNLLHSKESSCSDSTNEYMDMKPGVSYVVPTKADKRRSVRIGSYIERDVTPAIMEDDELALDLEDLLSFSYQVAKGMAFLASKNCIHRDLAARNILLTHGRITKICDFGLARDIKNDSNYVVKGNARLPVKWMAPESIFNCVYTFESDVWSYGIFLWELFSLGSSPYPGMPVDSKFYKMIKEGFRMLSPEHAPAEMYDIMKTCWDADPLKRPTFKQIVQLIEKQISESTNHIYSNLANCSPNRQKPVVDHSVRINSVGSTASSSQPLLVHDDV
FLT3 kinase, sequence (P36888 27-993): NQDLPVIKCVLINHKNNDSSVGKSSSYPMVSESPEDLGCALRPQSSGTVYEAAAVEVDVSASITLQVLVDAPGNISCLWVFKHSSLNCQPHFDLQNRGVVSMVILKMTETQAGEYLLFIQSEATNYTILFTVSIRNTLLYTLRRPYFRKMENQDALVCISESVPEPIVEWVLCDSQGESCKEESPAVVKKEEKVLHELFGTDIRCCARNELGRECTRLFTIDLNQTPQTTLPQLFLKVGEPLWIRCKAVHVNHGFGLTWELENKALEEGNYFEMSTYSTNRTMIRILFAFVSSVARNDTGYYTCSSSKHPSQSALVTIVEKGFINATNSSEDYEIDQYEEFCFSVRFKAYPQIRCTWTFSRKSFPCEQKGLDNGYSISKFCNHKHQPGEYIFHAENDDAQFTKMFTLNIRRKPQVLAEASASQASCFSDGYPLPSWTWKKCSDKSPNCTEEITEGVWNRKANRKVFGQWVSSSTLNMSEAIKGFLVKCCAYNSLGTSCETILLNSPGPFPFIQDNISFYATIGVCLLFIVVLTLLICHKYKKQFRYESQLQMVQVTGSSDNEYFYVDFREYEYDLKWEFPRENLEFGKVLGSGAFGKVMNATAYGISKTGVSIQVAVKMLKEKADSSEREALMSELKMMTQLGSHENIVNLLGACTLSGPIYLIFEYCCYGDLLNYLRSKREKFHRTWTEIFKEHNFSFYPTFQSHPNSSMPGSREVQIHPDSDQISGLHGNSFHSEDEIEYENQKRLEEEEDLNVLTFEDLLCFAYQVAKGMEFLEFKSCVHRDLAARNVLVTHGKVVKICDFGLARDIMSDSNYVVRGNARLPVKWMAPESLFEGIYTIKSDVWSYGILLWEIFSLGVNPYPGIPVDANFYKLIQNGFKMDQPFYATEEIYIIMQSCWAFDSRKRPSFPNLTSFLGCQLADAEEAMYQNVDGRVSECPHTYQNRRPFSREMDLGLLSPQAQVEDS

| Compound | Kd [1] [nM] | Kd [2] [nM] | IC50 [3] [nM] |
| --- | --- | --- | --- |
| CNC(=O)c1cc2cc(-c3ccc(CC(=O)Nc4cc(C(C)(C)C)on4)cc3)cnc2[nH]1 [Example 65, 5-(4-(2-((5-(tert-butyl)isoxazol-3-yl)amino)-2-oxoethyl)phenyl)-N-methyl-1H-pyrrolo[2,3-b]pyridine-2-carboxamide] | < 5 | < 5 | < 10 |
| CN(C)CCNC(=O)c1cc2cc(-c3ccc(CC(=O)Nc4cc(C(C)(C)C)on4)cc3)cnc2[nH]1 [Example 66, 5-(4-(2-((5-(tert-butyl)isoxazol-3-yl)amino)-2-oxoethyl)phenyl)-N-(2-(dimethylamino)ethyl)-1H-pyrrolo[2,3-b]pyridine-2-carboxamide] | < 5 | < 5 | < 10 |
| CN(C)CCCN(C)C(=O)c1cc2cc(-c3ccc(CC(=O)Nc4cc(C(C)(C)C)on4)cc3)cnc2[nH]1 [Example 67, 5-(4-(2-((5-(tert-butyl)isoxazol-3-yl)amino)-2-oxoethyl)phenyl)-N-(3-(dimethylamino)propyl)-N-methyl-1H-pyrrolo[2,3-b]pyridine-2-carboxamide] | < 5 | < 5 | < 10 |
| CC(C)(C)c1cc(NC(=O)Cc2ccc(-c3cnc4[nH]c(C(=O)NCCS(C)(=O)=O)cc4c3)cc2)no1 [Example 68, 5-(4-(2-((5-(tert-butyl)isoxazol-3-yl)amino)-2-oxoethyl)phenyl)-N-(2-(methylsulfonyl)ethyl)-1H-pyrrolo[2,3-b]pyridine-2-carboxamide] | < 5 | < 5 | < 10 |
| CN1CCC(NC(=O)c2cc3cc(-c4ccc(CC(=O)Nc5cc(C(C)(C)C)on5)cc4)cnc3[nH]2)CC1 [Example 69, 5-(4-(2-((5-(tert-butyl)isoxazol-3-yl)amino)-2-oxoethyl)phenyl)-N-(1-methylpiperidin-4-yl)-1H-pyrrolo[2,3-b]pyridine-2-carboxamide] | < 5 | < 5 | < 10 |
| O=C(Cc1ccc(-c2cnc3[nH]c(CO)cc3c2)cc1F)Nc1cc(C2(C(F)(F)F)CC2)on1 [Example 70, 2-(2-fluoro-4-(2-(hydroxymethyl)-1H-pyrrolo[2,3-b]pyridin-5-yl)phenyl)-N-(5-(1-(trifluoromethyl)cyclopropyl)isoxazol-3-yl)acetamide] | < 5 | < 5 | < 10 |
| CC(=O)OCCOc1cc2ncc(-c3ccc(CC(=O)Nc4cc(C5(C(F)(F)F)CC5)on4)c(F)c3)nc2cc1OCCOC(C)=O [Example 74, ((2-(3-fluoro-4-(2-oxo-2-((5-(1-(trifluoromethyl)cyclopropyl)isoxazol-3-yl)amino)ethyl)phenyl)quinoxaline-6,7-diyl)bis(oxy))bis(ethane-2,1-diyl) diacetate] | < 5 | 5 to 20 | < 10 |
| O=C(Cc1ccc(-c2cnc3cc(OCCO)c(OCCO)cc3n2)cc1F)Nc1cc(C2(C(F)(F)F)CC2)on1 [Example 75, 2-(4-(6,7-bis(2-hydroxyethoxy)quinoxalin-2-yl)-2-fluorophenyl)-N-(5-(1-(trifluoromethyl)cyclopropyl)isoxazol-3-yl)acetamide] | < 5 | < 5 | < 10 |
| O=C(Cc1ccc(-c2cnc3cc4c(cc3n2)OCCO4)cc1F)Nc1cc(C2(C(F)(F)F)CC2)on1 [Example 76, 2-(4-(2,3-dihydro-[1,4]dioxino[2,3-g]quinoxalin-7-yl)-2-fluorophenyl)-N-(5-(1-(trifluoromethyl)cyclopropyl)isoxazol-3-yl)acetamide] | < 5 | 5 to 20 | < 10 |
| COc1cc2nc(-c3ccc(CC(=O)Nc4cc(C5(C(F)(F)F)CC5)on4)c(F)c3)cnc2cc1O [Example 78, 2-(2-fluoro-4-(6-hydroxy-7-methoxyquinoxalin-2-yl)phenyl)-N-(5-(1-(trifluoromethyl)cyclopropyl)isoxazol-3-yl)acetamide] | < 5 | < 5 | < 10 |
| COc1cc2nc(-c3ccc(CC(=O)Nc4cc(C5(C(F)(F)F)CC5)on4)c(F)c3)cnc2cc1OCCN1CCOCC1 [Example 79, 2-(2-fluoro-4-(7-methoxy-6-(2-morpholinoethoxy)quinoxalin-2-yl)phenyl)-N-(5-(1-(trifluoromethyl)cyclopropyl)isoxazol-3-yl)acetamide] | < 5 | < 5 | < 10 |
| COc1cc2ncc(-c3ccc(CC(=O)Nc4cc(C5(C(F)(F)F)CC5)on4)c(F)c3)nc2cc1OCCO [Example 80, 2-(2-fluoro-4-(7-(2-hydroxyethoxy)-6-methoxyquinoxalin-2-yl)phenyl)-N-(5-(1-(trifluoromethyl)cyclopropyl)isoxazol-3-yl)acetamide] | < 5 | < 5 | < 10 |
| CCOc1cc2ncc(-c3ccc(CC(=O)Nc4cc(C5(C(F)(F)F)CC5)on4)c(F)c3)cc2cc1OC [Example 86, 2-(4-(7-ethoxy-6-methoxyquinolin-3-yl)-2-fluorophenyl)-N-(5-(1-(trifluoromethyl)cyclopropyl)isoxazol-3-yl)acetamide] | < 5 | < 5 | < 10 |
| COc1cc2cc(-c3ccc(CC(=O)Nc4cc(C5(C(F)(F)F)CC5)on4)c(F)c3)cnc2cc1OCCO [Example 88, 2-(2-fluoro-4-(7-(2-hydroxyethoxy)-6-methoxyquinolin-3-yl)phenyl)-N-(5-(1-(trifluoromethyl)cyclopropyl)isoxazol-3-yl)acetamide] | < 5 | < 5 | < 10 |
| COc1cc2nc(-c3ccc(CC(=O)Nc4cc(C5(C(F)(F)F)CC5)on4)c(F)c3)cnc2cc1OC1CN(C)C1 [Example 90, 2-(2-fluoro-4-(7-methoxy-6-((1-methylazetidin-3-yl)oxy)quinoxalin-2-yl)phenyl)-N-(5-(1-(trifluoromethyl)cyclopropyl)isoxazol-3-yl)acetamide] | < 5 | < 5 | < 10 |
| COc1cc2cc(-c3ccc(CC(=O)Nc4cc(C(C)(C)C(F)(F)F)on4)c(F)c3)cnc2cc1OCCO [Example 91, 2-(2-fluoro-4-(7-(2-hydroxyethoxy)-6-methoxyquinolin-3-yl)phenyl)-N-(5-(1,1,1-trifluoro-2-methylpropan-2-yl)isoxazol-3-yl)acetamide] | < 5 | < 5 | < 10 |
| CC(C)(C)c1cc(NC(=O)Cc2ccc(-c3cnc4[nH]cc(C5(O)COC5)c4c3)cc2)no1 [Example 97, N-(5-tert-butylisoxazol-3-yl)-2-[4-[3-(3-hydroxyoxetan-3-yl)-1H-pyrrolo[2,3-b]pyridin-5-yl]phenyl]acetamide] | < 5 | < 5 | < 10 |
| O=C(Cc1ccc(-c2cnc3nn4c(c3c2)OC(CO)C4)cc1F)Nc1cc(C2(C(F)(F)F)CC2)on1 (stereo not drawn) [Example 98, 2-[2-fluoro-4-[2-(hydroxy-methyl)-2,3-dihydro-oxazolo[3,4]pyrazolo[1,3-b]pyridin-8-yl]phenyl]-N-[5-[1-(trifluoro-methyl)cyclopropyl]isoxazol-3-yl]acetamide] | < 5 | < 5 | < 10 |
| CN1CCN(C(=O)c2cc3cc(-c4ccc(CC(=O)Nc5cc(C(C)(C)C)on5)cc4)cnc3[nH]2)CC1 [Example 99, N-(5-tert-butylisoxazol-3-yl)-2-[4-[2-(4-methylpiperazine-1-carbonyl)-1H-pyrrolo[2,3-b]pyridin-5-yl]phenyl]acetamide] | < 5 | < 5 | < 10 |

— patent publication US9725465B2, “Biaryl acetamide compounds and methods of use thereof” (Ambit Biosciences Corporation, priority 2013, dated 2017)
